# Experimental data published in ChEMBL document CHEMBL3792292, “Development of a potent and selective FLT3 kinase inhibitor by systematic expansion of a non-selective fragment-screening hit” (Bioorg Med Chem Lett, 2016).
# Key:
# [1] = target: T1, Receptor-type tyrosine-protein kinase FLT3 (Homo sapiens, UniProt P36888); experiment: Inhibition of human N-terminal GST-tagged FLT3 cytoplasmic domain (564 to 993 residues) expressed in baculovirus expression system using 5-FAM-peptide 2 as substrate after 2 hrs by electrophoretic mobility shift assay in presence of ATP
# T1 sequence (P36888 whole entry): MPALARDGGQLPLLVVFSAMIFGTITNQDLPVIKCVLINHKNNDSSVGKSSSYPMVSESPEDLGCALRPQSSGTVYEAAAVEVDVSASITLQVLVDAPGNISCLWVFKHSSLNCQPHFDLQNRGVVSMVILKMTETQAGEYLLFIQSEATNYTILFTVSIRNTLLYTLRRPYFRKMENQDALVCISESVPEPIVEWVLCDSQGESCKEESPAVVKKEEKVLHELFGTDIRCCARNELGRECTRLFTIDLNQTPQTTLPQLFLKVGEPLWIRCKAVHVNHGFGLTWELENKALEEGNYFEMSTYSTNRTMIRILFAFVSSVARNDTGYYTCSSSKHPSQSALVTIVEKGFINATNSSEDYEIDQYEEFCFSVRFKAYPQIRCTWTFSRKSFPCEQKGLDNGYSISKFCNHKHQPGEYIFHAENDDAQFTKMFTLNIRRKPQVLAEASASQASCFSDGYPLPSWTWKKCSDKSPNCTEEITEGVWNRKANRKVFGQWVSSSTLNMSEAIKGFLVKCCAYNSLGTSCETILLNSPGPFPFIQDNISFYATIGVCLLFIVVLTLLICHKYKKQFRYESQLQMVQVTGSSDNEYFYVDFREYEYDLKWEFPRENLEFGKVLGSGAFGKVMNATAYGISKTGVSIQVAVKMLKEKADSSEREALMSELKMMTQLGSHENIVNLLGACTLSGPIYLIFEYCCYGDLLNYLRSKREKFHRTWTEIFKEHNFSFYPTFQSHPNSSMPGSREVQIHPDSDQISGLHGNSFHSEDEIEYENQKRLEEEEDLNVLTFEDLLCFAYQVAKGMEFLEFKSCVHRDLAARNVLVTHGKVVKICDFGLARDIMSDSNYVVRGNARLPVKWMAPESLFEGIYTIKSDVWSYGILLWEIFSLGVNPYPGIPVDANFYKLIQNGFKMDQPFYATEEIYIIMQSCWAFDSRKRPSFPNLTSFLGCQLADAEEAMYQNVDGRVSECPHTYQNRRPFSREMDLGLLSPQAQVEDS
# [2] = target: T2, Ephrin type-B receptor 4 (Homo sapiens) (UniProt P54760); experiment: Inhibition of human N-terminal GST-tagged EPHB4 cytoplasmic domain (577 to 987 residues) expressed in baculovirus expression system using fluorescence labelled Blk/Lyntide as substrate at 50 times IC50 by electrophoretic mobility shift assay relative to control
# T2 sequence (whole entry): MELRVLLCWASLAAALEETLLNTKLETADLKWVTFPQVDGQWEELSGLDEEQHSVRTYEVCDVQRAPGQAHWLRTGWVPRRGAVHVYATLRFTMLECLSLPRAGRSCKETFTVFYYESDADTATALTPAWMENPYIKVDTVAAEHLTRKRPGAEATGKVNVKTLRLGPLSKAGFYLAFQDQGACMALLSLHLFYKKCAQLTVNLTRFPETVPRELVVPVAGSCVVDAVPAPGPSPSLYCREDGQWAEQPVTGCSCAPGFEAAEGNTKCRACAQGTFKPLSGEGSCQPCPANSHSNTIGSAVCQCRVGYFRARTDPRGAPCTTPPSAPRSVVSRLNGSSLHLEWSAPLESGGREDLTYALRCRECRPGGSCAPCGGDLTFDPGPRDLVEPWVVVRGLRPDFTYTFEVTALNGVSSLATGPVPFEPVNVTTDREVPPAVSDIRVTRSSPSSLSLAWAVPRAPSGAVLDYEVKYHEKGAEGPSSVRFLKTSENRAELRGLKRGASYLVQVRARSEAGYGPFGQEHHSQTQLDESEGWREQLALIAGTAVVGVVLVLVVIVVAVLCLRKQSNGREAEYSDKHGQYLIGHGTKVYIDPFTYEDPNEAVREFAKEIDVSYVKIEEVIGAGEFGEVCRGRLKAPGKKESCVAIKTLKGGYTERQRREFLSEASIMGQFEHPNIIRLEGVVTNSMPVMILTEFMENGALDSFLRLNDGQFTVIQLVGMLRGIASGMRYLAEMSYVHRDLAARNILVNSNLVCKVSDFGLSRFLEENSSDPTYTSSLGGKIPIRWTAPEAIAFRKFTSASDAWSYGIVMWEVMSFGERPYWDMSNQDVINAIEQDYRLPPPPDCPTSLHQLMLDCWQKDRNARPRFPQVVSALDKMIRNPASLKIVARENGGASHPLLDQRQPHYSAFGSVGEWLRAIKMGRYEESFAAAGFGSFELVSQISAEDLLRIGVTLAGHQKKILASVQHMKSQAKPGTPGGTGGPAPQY
# [3] = target: Platelet-derived growth factor receptor alpha (Homo sapiens) (UniProt P16234); experiment: Inhibition of human N-terminal GST-tagged PDGFRalpha cytoplasmic domain (550 to 1089 residues) expressed in baculovirus expression system using fluorescence labelled CSKtide as substrate at 50 times IC50 by electrophoretic mobility shift assay relative to control
# [4] = target: RAC-alpha serine/threonine-protein kinase (Homo sapiens) (UniProt P31749); experiment: Inhibition of human N-terminal GST-tagged AKT1 catalytic domain (104 to 480 residues) expressed in baculovirus expression system using fluorescence labelled crosstide as substrate at 50 times IC50 by electrophoretic mobility shift assay relative to control
# [5] = target: AMP-activated protein kinase, AMPK (Homo sapiens) (UniProt P54646+O43741+P54619+Q9UGJ0+Q9Y478+Q13131+Q9UGI9); experiment: Inhibition of human N-terminal GST-tagged AMPKalpha1 (1 to 550 residues)/beta1 (1 to 270 residues)/gamma1 (1 to 331 residues) expressed in baculovirus expression system using fluorescence labelled SAMS peptide substrate at 50 times IC50 by electrophoretic mobility shift assay relative to control
# [6] = target: Mitogen-activated protein kinase kinase kinase kinase 4 (Homo sapiens, UniProt O95819); experiment: Inhibition of human N-terminal GST-tagged HGK catalytic domain (1 to 328 residues) expressed in baculovirus expression system using fluorescence labelled moesin-derived peptide substrate at 50 times IC50 by electrophoretic mobility shift assay relative to control
# [7] = target: [Pyruvate dehydrogenase (acetyl-transferring)] kinase isozyme 1, mitochondrial (Homo sapiens) (UniProt Q15118); experiment: Inhibition of full length human N-terminal GST-tagged PDK1 (1 to 436 residues) expressed in baculovirus expression system using fluorescence labelled PDHKtide as substrate at 50 times IC50 by electrophoretic mobility shift assay relative to control
# RAC-alpha serine/threonine-protein kinase (Homo sapiens), sequence (P31749 whole entry, the tested form may be a part): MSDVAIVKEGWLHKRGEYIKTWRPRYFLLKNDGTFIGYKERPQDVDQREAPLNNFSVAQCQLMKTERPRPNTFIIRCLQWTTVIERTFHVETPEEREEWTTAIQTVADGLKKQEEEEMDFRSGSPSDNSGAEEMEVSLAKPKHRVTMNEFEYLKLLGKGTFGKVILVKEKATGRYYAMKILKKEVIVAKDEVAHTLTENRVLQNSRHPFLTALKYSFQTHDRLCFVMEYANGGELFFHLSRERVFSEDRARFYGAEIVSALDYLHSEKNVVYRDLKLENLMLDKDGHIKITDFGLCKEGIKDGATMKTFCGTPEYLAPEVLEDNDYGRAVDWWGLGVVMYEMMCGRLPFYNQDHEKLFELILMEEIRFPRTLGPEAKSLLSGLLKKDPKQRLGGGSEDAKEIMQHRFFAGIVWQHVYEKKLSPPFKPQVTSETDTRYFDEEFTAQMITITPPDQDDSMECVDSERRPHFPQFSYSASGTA
# Platelet-derived growth factor receptor alpha (Homo sapiens), sequence (P16234 whole entry, the tested form may be a part): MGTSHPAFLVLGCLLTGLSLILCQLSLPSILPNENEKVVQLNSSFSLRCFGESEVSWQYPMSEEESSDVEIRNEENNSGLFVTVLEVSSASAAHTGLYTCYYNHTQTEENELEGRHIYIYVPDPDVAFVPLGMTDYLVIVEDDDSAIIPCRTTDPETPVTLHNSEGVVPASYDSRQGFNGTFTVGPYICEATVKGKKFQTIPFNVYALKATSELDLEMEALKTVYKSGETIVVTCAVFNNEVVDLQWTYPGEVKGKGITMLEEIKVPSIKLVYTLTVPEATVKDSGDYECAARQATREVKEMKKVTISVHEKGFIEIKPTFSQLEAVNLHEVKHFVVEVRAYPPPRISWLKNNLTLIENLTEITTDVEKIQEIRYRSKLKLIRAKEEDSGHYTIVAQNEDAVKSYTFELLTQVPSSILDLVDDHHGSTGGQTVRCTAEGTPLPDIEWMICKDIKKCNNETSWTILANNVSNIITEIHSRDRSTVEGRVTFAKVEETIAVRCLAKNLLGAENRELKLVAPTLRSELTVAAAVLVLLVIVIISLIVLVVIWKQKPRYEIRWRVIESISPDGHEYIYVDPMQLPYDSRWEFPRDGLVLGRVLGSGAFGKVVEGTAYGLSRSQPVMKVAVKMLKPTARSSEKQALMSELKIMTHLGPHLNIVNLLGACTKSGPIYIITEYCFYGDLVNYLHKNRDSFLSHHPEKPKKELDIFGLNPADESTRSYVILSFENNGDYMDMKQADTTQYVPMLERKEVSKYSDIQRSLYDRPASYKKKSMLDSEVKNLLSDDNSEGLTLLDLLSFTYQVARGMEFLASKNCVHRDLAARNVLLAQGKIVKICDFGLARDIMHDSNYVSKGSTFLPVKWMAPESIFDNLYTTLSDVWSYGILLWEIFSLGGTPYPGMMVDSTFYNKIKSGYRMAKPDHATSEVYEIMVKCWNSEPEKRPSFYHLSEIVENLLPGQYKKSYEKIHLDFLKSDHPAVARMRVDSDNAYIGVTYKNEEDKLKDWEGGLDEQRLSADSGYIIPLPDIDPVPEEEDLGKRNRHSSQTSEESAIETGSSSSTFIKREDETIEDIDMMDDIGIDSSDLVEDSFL
# Mitogen-activated protein kinase kinase kinase kinase 4, sequence (O95819 2-1239 limits assumed): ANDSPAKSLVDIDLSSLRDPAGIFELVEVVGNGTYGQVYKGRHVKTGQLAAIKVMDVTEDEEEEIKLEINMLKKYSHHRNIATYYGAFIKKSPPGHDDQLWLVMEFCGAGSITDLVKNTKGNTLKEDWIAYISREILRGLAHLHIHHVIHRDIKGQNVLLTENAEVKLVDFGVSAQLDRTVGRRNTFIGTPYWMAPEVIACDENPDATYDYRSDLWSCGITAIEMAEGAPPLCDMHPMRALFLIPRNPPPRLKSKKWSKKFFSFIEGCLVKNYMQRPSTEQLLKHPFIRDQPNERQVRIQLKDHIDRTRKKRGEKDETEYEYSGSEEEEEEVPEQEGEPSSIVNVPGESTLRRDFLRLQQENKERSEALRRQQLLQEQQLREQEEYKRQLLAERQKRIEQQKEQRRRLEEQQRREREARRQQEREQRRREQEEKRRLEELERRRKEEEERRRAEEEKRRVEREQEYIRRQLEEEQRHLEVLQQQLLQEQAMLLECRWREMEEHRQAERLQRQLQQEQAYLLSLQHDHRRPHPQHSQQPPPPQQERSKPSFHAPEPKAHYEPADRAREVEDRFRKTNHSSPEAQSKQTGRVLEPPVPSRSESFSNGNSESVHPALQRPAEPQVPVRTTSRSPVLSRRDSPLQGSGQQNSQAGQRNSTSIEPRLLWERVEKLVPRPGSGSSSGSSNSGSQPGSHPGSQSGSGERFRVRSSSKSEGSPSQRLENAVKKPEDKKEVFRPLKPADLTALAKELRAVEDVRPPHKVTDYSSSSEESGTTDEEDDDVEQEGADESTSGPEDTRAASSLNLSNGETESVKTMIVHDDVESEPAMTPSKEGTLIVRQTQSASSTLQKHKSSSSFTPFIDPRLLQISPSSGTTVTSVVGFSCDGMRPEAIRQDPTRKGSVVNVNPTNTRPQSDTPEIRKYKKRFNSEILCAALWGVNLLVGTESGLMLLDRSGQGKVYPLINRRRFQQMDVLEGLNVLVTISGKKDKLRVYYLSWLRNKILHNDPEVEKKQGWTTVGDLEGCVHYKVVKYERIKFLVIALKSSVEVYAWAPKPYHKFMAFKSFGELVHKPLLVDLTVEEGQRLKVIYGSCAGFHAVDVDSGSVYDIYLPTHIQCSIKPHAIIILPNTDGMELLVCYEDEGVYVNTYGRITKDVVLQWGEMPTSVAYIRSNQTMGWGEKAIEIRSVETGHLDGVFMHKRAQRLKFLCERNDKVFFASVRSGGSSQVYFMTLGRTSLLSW
SMILES,IC50 [1] [µM],inhibition [2] [%],inhibition [3] [%],inhibition [4] [%],inhibition [5] [%],inhibition [6] [%],inhibition [7] [%]
O=C(Nc1ccccc1)c1n[nH]c2ccccc12,0.417,0.4,26.3,-2.4,46,92.5,-2.1
O=C(Nc1ccc(CN2CCN(c3ccccc3)CC2)cc1)c1n[nH]c2ccccc12,0.01,-0.4,9.8,-3.3,9.2,62.8,-2.8
O=C(Nc1ccc(C(=O)N2CCN(c3ccccc3)CC2)cc1)c1n[nH]c2ccccc12,0.034,-1.2,47.2,-1.1,18,90.6,1.9
